Source: US20260265055A1, “Sulfine-Based Compounds for Generating Hydrogen Persulfide” (Brown University, priority 2023, published 2026)

Experiment: Measurement of H2S2 formation from JK-1 with TTS (SSP4)
Conditions: TTS 200 μM + JK-1 400 μM, 30 min incubation, pH 7.4
Method: Measurement of H2S2 formation from JK-1 with TTS: JK-1 (1.1 mg) was added to a 1 dram vial and 4.484 mL of 50 mM PBS (pH 6.0) was then added to obtain a 1 mM stock solution with no headspace in the vial. The solution was vortexed to mix and then incubated in the dark at rt for 20 min. Based on the H2S-release profile reported under the same conditions (see Kang, J. et al., J. Am. Chem. Soc. 2016, 138, 6336), 400 μM of H2S (40% of 1 mM) should be released. The pH of the solution was then adjusted to 7.4 by adding 16 μL 2N NaOH. The same volume of 50 mM PBS (pH 6.0) buffer was added to an empty 1 dram vial and 16 μL of 2N NaOH was added to adjust the pH of the buffer similarly for the controls. After incubation, 500 μL of the pH-adjusted PBS was aliquoted to nine 1.5 mL Eppendorf tubes while the same volume of JK-1 solution was aliquoted into six 1.5 mL Eppendorf tubes. […] 200 μL of each tube was then added to separate wells on a 96-well black flat clear-bottomed plate before being measured on a Molecular Devices SpectraMax iD3 Multi-Mode Microplate Reader (emission 535 nm; excitation 485 nm; integration time […], low PMT sensitivity, attenuation 1, read height 3.00 mm).
JK-1 in buffer was mixed with TTS to generate H2S2. After a 30 min incubation, the formation of H2S2 was measured by SSP4.

COC(=O)c1ccc(=S=O)sc1 [TTS, 2H-thiopyran-2-thione sulfine]
SSP4 fluorescence (H2S2 formation): strong fluorescence
